Test results: patent US12607406B2, “Recombinant virus, composition comprising the same, and uses thereof” (ACADEMIA SINICA, priority 2016, dated 2026)

Tests used:
[1] = test system: Influenza A virus A/WSN/33 (H1N1) neuraminidase (NA), wild type, SEQ ID NO: 4; type: biochemical
[2] = test system: Influenza A virus A/WSN/33 (H1N1) neuraminidase (NA) on virus, wild type, SEQ ID NO: 4; type: biochemical

Compound	Kcat [1]	Km [1]	Vmax [1]	Km [2]
CC(=O)N[C@H]1[C@H]([C@H](O)[C@H](O)CO)O[C@@](Oc2ccc3c(C)cc(=O)oc3c2)(C(=O)O)C[C@@H]1O [4-Muα-Neu5Ac, 2-(4-methylumbelliferyl)-α-D-N-acetylneuraminic acid]	514.3 s⁻¹	585 µM	5.025 nM/s	487 µM
CC(=O)N[C@H]1[C@H]([C@H](O)[C@H](O)CO)O[C@@](OC[C@H]2O[C@@H](O[C@H]3[C@H](O)[C@@H](NC(C)=O)C(O)O[C@@H]3CO)[C@H](O)[C@@H](O)[C@H]2O)(C(=O)O)C[C@@H]1O (stereo partly drawn) [6SLN, 6′-sialyl-N-acetyllactosamine]	104.2 s⁻¹	679 µM	1.07 nM/s	534 µM
CC(=O)N[C@H]1[C@H]([C@H](O)[C@H](O)CO)O[C@@](O[C@H]2[C@@H](O)[C@@H](CO)O[C@@H](O[C@H]3[C@H](O)[C@@H](NC(C)=O)C(O)O[C@@H]3CO)[C@@H]2O)(C(=O)O)C[C@@H]1O (stereo partly drawn) [3SLN, 3′-sialyl-N-acetyllactosamine]	688.2 s⁻¹	125 µM	7.04 nM/s	115 µM
